Reference: US20260337245A1, “POLYPEPTIDE OR ANALOG THEREOF AND USE THEREOF” (Shenzhen Bay Laboratory, priority 2024, published 2026)
Starred links: 1 amine or outer side, 2 acyl side, 3 side chain; linkers in the order of their positions; H or OH if unused. Positions of bridges follow the written chain, without caps; N, C: chain ends. Non-standard residues stand in square brackets, D forms with d. Residues, ends and D or L forms follow the SMILES beside them. X1 = O=C(O)CCCCCCCCCCCCCCCCCCC(=O)N[C@@H](CCCCNC(=O)COCCOCCNC(=O)COCCOCCNC(=O)CCC(=O)N(CCNC(=O)C[*:1])CCNC(=O)C[*:2])C(=O)O; Aib = CC(C)(N)C(=O)O

Experiments:
[1] = biological target: T1, AMY3R (Homo sapiens, UniProt P30988); experiment: HTRF cAMP assay, AMY3R; format: cell-based; settings: HEK293/pGM-CREB-L-Luc/AMY3R pool, read-out: IC50 of receptor AMY3R
T1 construct: expressed in transfected cells
T1 sequence (P30988 25-474): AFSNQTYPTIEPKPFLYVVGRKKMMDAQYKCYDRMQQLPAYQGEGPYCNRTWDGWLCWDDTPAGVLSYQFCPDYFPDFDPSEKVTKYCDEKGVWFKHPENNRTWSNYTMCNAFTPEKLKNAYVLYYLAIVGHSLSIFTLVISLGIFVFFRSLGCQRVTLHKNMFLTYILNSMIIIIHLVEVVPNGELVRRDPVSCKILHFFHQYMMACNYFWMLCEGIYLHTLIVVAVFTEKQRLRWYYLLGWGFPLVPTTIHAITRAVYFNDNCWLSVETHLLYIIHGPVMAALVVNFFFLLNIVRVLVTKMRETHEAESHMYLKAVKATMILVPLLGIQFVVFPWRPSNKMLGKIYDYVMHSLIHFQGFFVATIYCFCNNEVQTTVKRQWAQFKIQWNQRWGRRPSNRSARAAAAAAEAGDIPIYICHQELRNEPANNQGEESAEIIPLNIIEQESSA
T1 sequence (O60896 24-148 partner): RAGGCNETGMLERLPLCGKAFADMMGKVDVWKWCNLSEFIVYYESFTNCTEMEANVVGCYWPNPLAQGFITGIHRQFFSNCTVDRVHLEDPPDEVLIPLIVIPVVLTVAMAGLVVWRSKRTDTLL
Text: (§1) 2. The polypeptide derivatives prepared in Example 1 and Example 2 of the present disclosure can bind to the target AMYR and CTR receptors on the cell membrane, activate the receptors and release cAMP. Therefore, the activity of the analyte can be determined by using an HTRF (homogeneous time-resolved fluorescence) method and using a cAMP detection kit. The specific steps were as follows:
(§2) A stable transfected cell line of HEK293/pGM-CREB-L-Luc/AMY3R pool and HEK293/pGM-CREB-L-Luc/CTR pool was constructed. The polypeptide derivatives (i.e., AMY-001 to AMY-041) prepared in Examples 1 and 2 were subjected to 5-fold serial dilution from a maximum of 1000 nM to prepare a dilution series containing 8 to 11 concentration gradients. Cagrilintide and sCT were selected as positive controls for testing, and a dilution series was prepared according to the same method for testing. The test cell lines were selected and treated with cAMP-specific trypsin for digestion, and then suspended with 3 mL of serum-free DMEM medium by pipetting, and the cells were counted. 5 μL of IBMX (prepared with serum-free DMEM medium, 0.5 mM) and test cells (5 μL/7500 cells/well) were sequentially added to a 384-well plate, incubated under the conditions of 37° C., 5% CO2 for 30 minutes, then added with cAMP-d2 (5 μL, 1×) and Anti-cAMP-Cryptate (5 μL, 1×) and placed at room temperature for 1 hour. A HTRF value was determined by a chemiluminescence microplate reader, and the results were recorded. An activation curve was plotted using GraphPad Prism software to calculate an IC50 value of each polypeptide derivative. […] The IC50 values of some polypeptides were exemplarily shown in this example, see Table 3, FIG. 2 and FIG. 3 for details.

[2] = biological target: T2, CTR (Homo sapiens, UniProt P30988); experiment: HTRF cAMP assay, CTR; format: cell-based; settings: HEK293/pGM-CREB-L-Luc/CTR pool, read-out: IC50 of receptor CTR
T2 construct: expressed in transfected cells
T2 sequence (P30988 25-474): T1 sequence (P30988 25-474)
Text: as §1, §2

EC50 [1] | EC50 [2] | SMILES
0.0713 nM | 0.0502 nM | CC(=O)N[C@@H](C)C(=O)N[C@@H](CO)C(=O)N[C@@H](Cc1c[nH]cn1)C(=O)N[C@@H](CC(C)C)C(=O)N[C@@H](CO)C(=O)N[C@H](C(=O)N[C@@H](C)C(=O)N[C@H](C(=O)N[C@@H](CC(C)C)C(=O)NCC(=O)N[C@@H](CCCNC(=N)N)C(=O)N[C@@H](CC(C)C)C(=O)N[C@H]1CSCC(=O)NCCN(C(=O)CCC(=O)NCCOCCOCC(=O)NCCOCCOCC(=O)NCCCC[C@H](NC(=O)CCCCCCCCCCCCCCCCCCC(=O)O)C(=O)O)CCNC(=O)CSC[C@@H](C(=O)N[C@@H](CC(=O)O)C(=O)N[C@@H](Cc2ccc(O)cc2)C(=O)N2CCC[C@H]2C(=O)N[C@@H](CCCNC(=N)N)C(=O)N[C@H](C(=O)N[C@@H](CC(=O)O)C(=O)N[C@H](C(=O)NCC(=O)N[C@@H](C)C(=O)NCC(=O)N[C@@H](CO)C(=O)N2CCC[C@H]2C(N)=O)C(C)C)[C@@H](C)O)NC(=O)[C@H](CC(C)C)NC(=O)[C@H](CCCCN)NC(=O)[C@H](Cc2c[nH]cn2)NC(=O)[C@H](CC(C)C)NC(=O)[C@H](CCC(=O)O)NC(=O)[C@H](C)NC1=O)C(C)C)[C@@H](C)O [AMY-008] (Ac-ASHLSTAVLGRLCAELHKLCDYPRTDVGAGSP-NH2; linker 13-20 via X1)
0.0123 nM | – | CC[C@H](C)[C@H](NC(=O)[C@@H]1CCCN1C(=O)CNC(=O)[C@H](Cc1ccccc1)NC(=O)[C@H](CC(N)=O)NC(=O)[C@H](CC(N)=O)NC(=O)[C@H](CO)NC(=O)[C@H](CO)NC(=O)[C@H](Cc1c[nH]cn1)NC(=O)[C@H](CCCNC(=N)N)NC(=O)[C@H](CC(C)C)NC(=O)[C@H](Cc1ccccc1)NC(=O)[C@H](CCC(=O)O)NC(=O)[C@H](C)NC(=O)[C@H](CC(C)C)NC(=O)[C@H](CCCNC(=N)N)NC(=O)[C@H](CCC(N)=O)NC(=O)[C@@H](NC(=O)[C@H](C)NC(=O)[C@@H]1CSSC[C@H](NC(=O)[C@H](CCCCN)NC(=O)CC[C@H](NC(=O)CCCCCCCCCCCCCCCCCCC(=O)O)C(=O)O)C(=O)N[C@@H](CC(N)=O)C(=O)N[C@@H]([C@@H](C)O)C(=O)N[C@@H](C)C(=O)N[C@@H]([C@@H](C)O)C(=O)N1)[C@@H](C)O)C(=O)N[C@@H](CC(C)C)C(=O)N1CCC[C@H]1C(=O)N1CCC[C@H]1C(=O)N[C@H](C(=O)N[C@@H](CC(N)=O)C(=O)N[C@H](C(=O)NCC(=O)N[C@@H](CO)C(=O)N[C@@H](CC(N)=O)C(=O)N[C@H](C(=O)N1CCC[C@H]1C(N)=O)[C@@H](C)O)C(C)C)[C@@H](C)O [Cagrilintide, reference compound]

The remaining lines, values behind:

SMILES | EC50 [1] | EC50 [2]
CC(=O)N[C@@H](C)C(=O)N[C@@H](CO)C(=O)N[C@@H](Cc1c[nH]cn1)C(=O)N[C@@H](CC(C)C)C(=O)N[C@@H](CO)C(=O)N[C@H](C(=O)N[C@H]1CSCC(=O)NCCN(C(=O)CCC(=O)NCCOCCOCC(=O)NCCOCCOCC(=O)NCCCC[C@H](NC(=O)CCCCCCCCCCCCCCCCCCC(=O)O)C(=O)O)CCNC(=O)CSC[C@@H](C(=O)N[C@@H](CCC(=O)O)C(=O)N[C@@H](CC(C)C)C(=O)N[C@@H](Cc2c[nH]cn2)C(=O)N[C@@H](CCCCN)C(=O)N[C@@H](CC(C)C)C(=O)NC(C)(C)C(=O)N[C@@H](CC(=O)O)C(=O)N[C@@H](Cc2ccc(O)cc2)C(=O)N2CCC[C@H]2C(=O)N[C@@H](CCCNC(=N)N)C(=O)N[C@H](C(=O)N[C@@H](CC(=O)O)C(=O)N[C@H](C(=O)NCC(=O)N[C@@H](C)C(=O)NCC(=O)N[C@@H](CO)C(=O)N2CCC[C@H]2C(N)=O)C(C)C)[C@@H](C)O)NC(=O)[C@H](CO)NC(=O)[C@H](CC(C)C)NC(=O)[C@H](CCCNC(=N)N)NC(=O)CNC(=O)[C@H](CC(C)C)NC(=O)[C@H](C(C)C)NC1=O)[C@@H](C)O [AMY-002, Ac ASHLSTCVLGRLSCELHKL-Aib-DYPRTDVGAGSP-NH2] (Ac-ASHLSTCVLGRLSCELHKL[Aib]DYPRTDVGAGSP-NH2; linker 7-14 via X1) | 0.0671 nM | 0.0906 nM
CC(=O)N[C@@H](C)C(=O)N[C@@H](CO)C(=O)N[C@@H](Cc1c[nH]cn1)C(=O)N[C@@H](CC(C)C)C(=O)N[C@@H](CO)C(=O)N[C@H](C(=O)N[C@@H](C)C(=O)N[C@H](C(=O)N[C@@H](CC(C)C)C(=O)N[C@H]1CSCC(=O)NCCN(C(=O)CCC(=O)NCCOCCOCC(=O)NCCOCCOCC(=O)NCCCC[C@H](NC(=O)CCCCCCCCCCCCCCCCCCC(=O)O)C(=O)O)CCNC(=O)CSC[C@@H](C(=O)N[C@@H](CCCCN)C(=O)N[C@@H](CC(C)C)C(=O)NC(C)(C)C(=O)N[C@@H](CC(=O)O)C(=O)N[C@@H](Cc2ccc(O)cc2)C(=O)N2CCC[C@H]2C(=O)N[C@@H](CCCNC(=N)N)C(=O)N[C@H](C(=O)N[C@@H](CC(=O)O)C(=O)N[C@H](C(=O)NCC(=O)N[C@@H](C)C(=O)NCC(=O)N[C@@H](CO)C(=O)N2CCC[C@H]2C(N)=O)C(C)C)[C@@H](C)O)NC(=O)[C@H](CC(C)C)NC(=O)[C@H](CCC(=O)O)NC(=O)[C@H](C)NC(=O)[C@H](CO)NC(=O)[C@H](CC(C)C)NC(=O)[C@H](CCCNC(=N)N)NC1=O)C(C)C)[C@@H](C)O [AMY-005, Ac-ASHLSTAVLCRLSAELCKL-Aib-DYPRTDVGAGSP-NH2] (Ac-ASHLSTAVLCRLSAELCKL[Aib]DYPRTDVGAGSP-NH2; linker 10-17 via X1) | 0.198 nM | 0.303 nM
CC(=O)N[C@@H](C)C(=O)N[C@@H](CO)C(=O)N[C@@H](Cc1c[nH]cn1)C(=O)N[C@@H](CC(C)C)C(=O)N[C@@H](CO)C(=O)N[C@H](C(=O)N[C@@H](C)C(=O)N[C@H](C(=O)N[C@@H](CC(C)C)C(=O)NCC(=O)N[C@H]1CSCC(=O)NCCN(C(=O)CCC(=O)NCCOCCOCC(=O)NCCOCCOCC(=O)NCCCC[C@H](NC(=O)CCCCCCCCCCCCCCCCCCC(=O)O)C(=O)O)CCNC(=O)CSC[C@@H](C(=O)N[C@@H](CC(C)C)C(=O)NC(C)(C)C(=O)N[C@@H](CC(=O)O)C(=O)N[C@@H](Cc2ccc(O)cc2)C(=O)N2CCC[C@H]2C(=O)N[C@@H](CCCNC(=N)N)C(=O)N[C@H](C(=O)N[C@@H](CC(=O)O)C(=O)N[C@H](C(=O)NCC(=O)N[C@@H](C)C(=O)NCC(=O)N[C@@H](CO)C(=O)N2CCC[C@H]2C(N)=O)C(C)C)[C@@H](C)O)NC(=O)[C@H](Cc2c[nH]cn2)NC(=O)[C@H](CC(C)C)NC(=O)[C@H](CCC(=O)O)NC(=O)[C@H](C)NC(=O)[C@H](CO)NC(=O)[C@H](CC(C)C)NC1=O)C(C)C)[C@@H](C)O [AMY-006, Ac-ASHLSTAVLGCLSAELHCL-Aib-DYPRTDVGAGSP-NH2] (Ac-ASHLSTAVLGCLSAELHCL[Aib]DYPRTDVGAGSP-NH2; linker 11-18 via X1) | 0.0254 nM | 0.0107 nM
CC(=O)N[C@@H](C)C(=O)N[C@@H](CO)C(=O)N[C@@H](Cc1c[nH]cn1)C(=O)N[C@@H](CC(C)C)C(=O)N[C@@H](CO)C(=O)N[C@H](C(=O)N[C@@H](C)C(=O)N[C@H](C(=O)N[C@@H](CC(C)C)C(=O)NCC(=O)N[C@@H](CCCNC(=N)N)C(=O)N[C@H]1CSCC(=O)NCCN(C(=O)CCC(=O)NCCOCCOCC(=O)NCCOCCOCC(=O)NCCCC[C@H](NC(=O)CCCCCCCCCCCCCCCCCCC(=O)O)C(=O)O)CCNC(=O)CSC[C@@H](C(=O)NC(C)(C)C(=O)N[C@@H](CC(=O)O)C(=O)N[C@@H](Cc2ccc(O)cc2)C(=O)N2CCC[C@H]2C(=O)N[C@@H](CCCNC(=N)N)C(=O)N[C@H](C(=O)N[C@@H](CC(=O)O)C(=O)N[C@H](C(=O)NCC(=O)N[C@@H](C)C(=O)NCC(=O)N[C@@H](CO)C(=O)N2CCC[C@H]2C(N)=O)C(C)C)[C@@H](C)O)NC(=O)[C@H](CCCCN)NC(=O)[C@H](Cc2c[nH]cn2)NC(=O)[C@H](CC(C)C)NC(=O)[C@H](CCC(=O)O)NC(=O)[C@H](C)NC(=O)[C@H](CO)NC1=O)C(C)C)[C@@H](C)O [AMY-007, Ac-ASHLSTAVLGRCSAELHKC-Aib-DYPRTDVGAGSP-NH2] (Ac-ASHLSTAVLGRCSAELHKC[Aib]DYPRTDVGAGSP-NH2; linker 12-19 via X1) | 0.349 nM | 0.262 nM
